From patent US20230391779A1, “BICYCLIC COMPOUNDS, COMPOSITIONS AND USE THEREOF” (Betta Pharmaceuticals Co., Ltd., priority 2020, published 2023) come the findings set out here.

Data set [1] deals with NCI-H226 cells. As to the kind of experiment: BRDU assay (cell proliferation). It counts as cell-based. To be noted: Homo sapiens, proliferation inhibition, 1% FBS medium. The protocol: PerkinElmer's DELFIA® Cell proliferation kit (PerkinElmer, Cat: AD0200) was used to detect the inhibition on the proliferation of NCI-H226 cells (ATCC, CRL-5826). • a) Seeded 1500/well for NCI-H226 cell into a 96-well plate. • b) After 24 hours, compound was added to wells with 1% FBS medium conditions. The final testing concentrations of test compounds were […]. • c) NCI-H226 cells were incubated for 72 hours in incubator. • d) Diluted BrdU Labeling Reagent 100-fold with medium and added […] per well. The NCI-H226 cells were incubated 24 h in 5% CO2 at 37° C. incubator. • e) Detect cell proliferation according BrdU kit, and the luminescence signal value of each well on the multifunctional microplate reader was readed.
Data analysis: • Use GraphPad Prism 6 software to calculate IC50 and plot effect-dose curve of compounds.
Y=Bottom+(Top−Bottom)/(1+10^((LogIC50−X)×HillSlope)). • Y was the inhibition %, • X was the log concentration of compounds.
Inhibition %=(signalHC−signalcomp)/(signalHC−signalLC); • HC (high control) was DMSO group, • LC (low control) was 10 uM staurosporine group, • Comp was administration group.
IC50 data obtained for the Example compounds are provided in Table 7, and the inhibition curve in NCI-H226 cell line are as shown in FIG. 1-7, wherein X axis is compound concentration (nm), Y axis is the inhibition %.

The subject of data set [2] is TEAD-YAP/TAZ interaction. Nature of the data set: CTGF ELISA assay. It counts as cell-based, human. Particulars: CTGF in culture supernatant of NCI-H2052 cells, 24 hours with compound. An outline of the steps: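 NCI-H2052 cells treated 24 h at 37 °C with compound (10000–0.61 nM, 0.5% DMSO); secreted CTGF in supernatant measured by sandwich ELISA (OD 450 nm) against a standard curve. EC50 fitted from CTGF concentration-response curves.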
A general note: An ELISA detects its analyte on a solid surface through an enzyme-linked reagent.

The subject of data set [3] is NCI-H226 human lung squamous cell carcinoma xenograft. As to the kind of experiment: In vivo efficacy, subcutaneous NCI-H226 xenograft model. Set-up: species or system BALB/c nude mice. To be noted: QD, oral, tumor volume at day 28. The procedure:
In vivo pharmacodynamic and efficacy studies of compound 5, compound 6, and compound 124 in the subcutaneous NCI-H226 human lung squamous cell carcinoma xenograft model on BALB/c nude mice.
(§1) Each mouse (D000521 BALB/c-Nu, GemPharmatech Co., Ltd.) was inoculated subcutaneously at the right flank with NCI-H226 tumor cells (ATCC, CRL-5826) (1×107) in 0.2 mL of PBS with Matrigel (Corning, 356234) (1:1) for tumor development. Treatments were started when the average tumor size reached approximately 100-150 mm3. The test article was administered to the mice orally once a day from the day of grouping, total 28 days (QD×28 Days). Body weight change of animals was monitored regularly as an indicator of drug safety. Tumor volumes were measured twice weekly in two dimensions using a caliper, and the volume was expressed in mm3 using the formula “V=(LλW^2)/2”, where V is the tumor volume, L is the tumor length (the longest tumor dimension) and W is the tumor width (the longest tumor dimension perpendicular to L). Therapeutic efficacy was evaluated by tumor growth inhibition TGI (%)·TGI (%)=[1−(Ti−T0)/(Vi−V0)]×100; Ti is the average tumor volume of a treatment group on a given day, TO is the average tumor volume of the treatment group on day 0, Vi is the average tumor volume of the vehicle control group on the same day with Ti, and V0 is the average tumor volume of the vehicle group on day 0.

Data set [4] in a line: Body weight change in NCI-H226 xenograft model. It is filed as in vivo, BALB/c nude mice. To be noted: daily oral dosing, 28 days, mice bearing NCI-H226 tumor. The protocol: as §1
Data set [5] in a line: Pharmacokinetics in plasma following PO cassette dosing in mice. To be noted: mouse, Balb/C female mice, 5 mg/kg; for AUC: blood collection 30 min, 2 h, 4 h. It counts as in vivo. The protocol: Adult Balb/C female mice (6-7 weeks, Vitalriver) were received to cassette dosing of the test compounds with 10-20% DMSO, 10% Solutol (Kolliphor HS 15, Beijing Fengli Jingqiu Pharmaceutical Co., Ltd.) and 80-70% H2O as excipients. The mice (n=3) were giving oral administration (intragastric administration) at a dose of 5 mg/kg. Time of blood collection: 30 min, 2 h, 4 h. About 0.1 mL of whole blood was collected from retro-orbital venous plexus, and placed into tubes that contained EDTA as an anticoagulant. The samples were centrifuged at 4° C. and 4000 rpm for 10 min. The plasma was transferred into centrifuge tubes, and stored at −20° C. before being analyzed. Concentrations of test compounds in the plasma samples were analyzed with liquid chromatography-tandem mass spectrometry (LC-MS/MS). Plasma concentration-time data of individual animals was analyzed using Microsoft Excel 2010. Non-compartmental model was introduced in concentration analysis. The pharmacokinetic parameters of the test compounds were calculated using WinNonlin (version 4.1; Pharsight) software.

For orientation: IC50 means the concentration at which inhibition is half-maximal. A high value points to weaker potency in that assay. For orientation: EC50 means the concentration at which the effect is half-maximal. Consider `C=CC(=O)N1CCC(n2nc(-c3ccc(C(F)(F)F)cc3)c3ccccc32)C1` (stereo not drawn) [Compound 3, 1-(3-(3-(4-(trifluoromethyl)phenyl)-1H-indazol-1-yl)pyrrolidin-1-yl)prop-2-en-1-one], for which 19.5 nM corresponded to half-maximal inhibition in data set [1] (IC50). In data set [2], the concentration giving a half-maximal response (EC50) stood at 30.4 nM.

As to `C=C(F)C(=O)N1CC(n2nc(-c3ccc(C(F)(F)F)cc3)c3cccnc32)C1` [Compound 5, 2-fluoro-1-(3-(3-(4-(trifluoromethyl)phenyl)-1H-pyrazolo[3,4-b]pyridin-1-yl)azetidin-1-yl)prop-2-en-1-one], the “TGI (%)” value in data set [3] (0.5 mg/kg) stood at 40.3%; in data set [3] (2 mg/kg), 76.9%; in data set [3] (10 mg/kg) it was 101.3%; in data set [3] (50 mg/kg), 105.9%. The molecule also came in with an IC50 in data set [1] of 5.33 nM. In addition, the body weight loss result in data set [4] is recorded as “no significant body weight loss”. Also, in data set [2], the EC50 was 3 nM.

For `C=C(F)C(=O)N1CC(n2nc(-c3ccc(C(F)(F)F)cc3)c3ncccc32)C1` [Compound 6, 2-fluoro-1-(3-(3-(4-(trifluoromethyl)phenyl)-1H-pyrazolo[4,3-b]pyridin-1-yl)azetidin-1-yl)prop-2-en-1-one], the results for the “TGI (%)” value in data set [3] (2 mg/kg) and in data set [3] (10 mg/kg) were 77.1% and 88.6%, respectively. The molecule also had an IC50 in data set [1] of 140 nM. Moreover, the body weight loss entry in data set [4] is “no significant body weight loss”. In data set [2], the EC50 amounted to 2 nM.

In data set [1], `C=CC(=O)N1CC(n2nc(-c3ccc(C(F)(F)F)cc3)c3cccnc32)C1` [Compound 30, 1-(3-(3-(4-(trifluoromethyl)phen-yl)-1H-pyrazolo[3,4-b]pyridin-1-yl)azetidin-1-yl)prop-2-en-1-one] returned an IC50 of 55.7 nM. In addition, the EC50 in data set [2] came out at 12 nM.

Broadly, the Cmax is the maximum level reached in the sampled fluid or tissue. Usually AUC stands for concentration integrated over time. Read a high AUC as more exposure. In data set [5], `C=C(C)C(=O)N1CC(n2nc(-c3ccc(C(F)(F)F)cc3)c3cccnc32)C1` [Compound 73, 2-methyl-1-(3-(3-(4-(trifluoro-methyl)phenyl)-1H-pyrazolo[3,4-b]pyridin-1-yl)azetidin-1-yl)prop-2-en-1-one] returned a Cmax of 1190 ng/mL and an AUC of 4070 ng·h/mL. This molecule had an IC50 in data set [1] of 114 nM. Further, the EC50 in data set [2] was found to be 7 nM.

For `C=C(F)C(=O)N1CC(n2nc(-c3ccc(C(F)(F)F)cc3)c3ncn(C)c(=O)c32)C1` [Compound 80, 1-(1-(2-fluoroacryloyl)azetidin-3-yl)-6-methyl-3-(4-(trifluorometh-yl)phenyl)-1,6-dihydro-7H-pyrazolo[4,3-d]pyrimidin-7-one], half-maximal inhibition in data set [1] (IC50) required 2.32 nM. Moreover, the EC50 in data set [2] came to 2 nM.

Consider `C=C(F)C(=O)N1CC(n2nc(-c3ccc(C(F)(F)F)nc3)c3cccnc32)C1` [Compound 124, 2-fluoro-1-(3-(3-(6-(trifluoro-methyl)pyridin-3-yl)-1H-pyrazolo[3,4-b]pyridin-1-yl)-azetidin-1-yl)prop-2-en-1-one], for which, in data set [3] (2 mg/kg), the “TGI (%)” value was 67.3%. In data set [5], this molecule gave a Cmax of 7190 ng/mL and an AUC of 24300 ng·h/mL. In data set [1], the midpoint of inhibition, the IC50, lay at 20.7 nM. Besides, in data set [4], the body weight loss result is reported as “no significant body weight loss”. Moreover, the EC50 in data set [2] amounted to 14 nM.

Regarding `C=C(F)C(=O)N1CC(n2nc(-c3ccc(C(F)(F)F)nc3)c3ncccc32)C1` [Compound 132, 2-fluoro-1-(3-(3-(6-(trifluoro-methyl)pyridin-3-yl)-1H-pyrazolo[4,3-b]pyridin-1-yl)-azetidin-1-yl)prop-2-en-1-one], in data set [1], the IC50 is 12.7 nM. Besides, the EC50 in data set [2] was determined as 6 nM.

On to `C=C(F)C(=O)N1CC(n2nc(-c3ccc(C(F)(F)F)nc3C)c3cccnc32)C1` [Compound 182, 2-fluoro-1-(3-(3-(2-methyl-6-(trifluoromethyl)pyridin-3-yl)-1H-pyrazolo[3,4-b]pyridin-1-yl)azetidin-1-yl)prop-2-en-1-one], for which, in data set [5], the peak level (Cmax) was 2160 ng/mL and the AUC was determined as 7410 ng·h/mL. Moreover, the EC50 in data set [2] worked out at 0.394 nM.

On to `C=C(F)C(=O)N1CC(n2nc(-c3ccc(C(F)(F)F)cc3)c3ncn(CC)c(=O)c32)C1` [Compound 218, 6-ethyl-1-(1-(2-fluoroacryloyl)-azetidin-3-yl)-3-(4-(trifluoro-methyl)phenyl)-1,6-dihydro-7H-pyrazolo[4,3-d]pyrimidin-7-one], for which, in data set [5], the Cmax is 1190 ng/mL and the AUC stood at 3780 ng·h/mL. The EC50 in data set [2] was found to be 0.7 nM.

On to `C=C(F)C(=O)N1CC(n2c(=O)n(-c3ccc(C(F)(F)F)cc3)c3ccccc32)C1` [Compound 229, 1-(1-(2 fluoroacryloyl)azetidin-3 yl)-3-(4-(trifluoromethyl)phenyl)-1,3-dihydro-2H-benzo[d]imidazol-2-one], for which, in data set [5], the Cmax came out at 1040 ng/mL and the AUC was 3840 ng·h/mL. Also, the EC50 in data set [2] was determined as 20 nM.

On to `C=C(F)C(=O)N1CC(n2c(=O)n(-c3ccc(C(F)(F)F)cc3)c3nccnc32)C1` [Compound 240, 1-(1-(2-fluoroacryloyl)azetidin-3-yl)-3-(4-(trifluoromethyl)phenyl)-1,3-dihydro-2H-imidazo[4,5-b]pyrazin-2-one], for which, in data set [5], the Cmax came out at 1600 ng/mL and the AUC came to 5880 ng·h/mL. Also, the EC50 in data set [2] was determined as 1.3 nM.

Take `C=C(F)C(=O)N1CC(n2c(=O)n(-c3ccc(C(F)(F)F)cc3)c3ccc(C)nc32)C1` [Compound 242, 3-(1-(2-fluoroacryloyl)azetidin-3-yl)-5-methyl-1-(4-(trifluoromethyl)phenyl)-1,3-dihydro-2H-imidazo[4,5-b]pyridin-2-one]: in data set [5], the Cmax turned out to be 1770 ng/mL and the area under the curve (AUC) was determined as 5410 ng·h/mL. Moreover, in data set [2], the EC50 was determined as 10 nM.

In data set [5], `C=C(F)C(=O)N1CC(n2c(=O)n(-c3ccc(C(F)(F)F)nc3)c3ccc(C)nc32)C1` [Compound 243, 3-(1-(2-fluoroacryloyl)azetidin-3-yl)-5-methyl-1-(6-(trifluoromethyl)pyridin-3-yl)-1,3-dihydro-2H-imidazo[4,5-b]pyridin-2-one] registered a Cmax of 1210 ng/mL and an area under the curve (AUC) of 4010 ng·h/mL. Moreover, the EC50 in data set [2] is 28 nM.
